Test results as given in ChEMBL document CHEMBL5543145, “Discovery of the First-in-Class G9a/GLP PROTAC Degrader” (J Med Chem, 2024).
The source made the active and inactive calls. The calls are words filed in the database; no cut-off is given here.

What was measured:
[1] = target: T1, von Hippel-Lindau disease tumor suppressor/Histone-lysine N-methyltransferase EHMT2 (Homo sapiens, UniProt Q96KQ7+P40337); experiment: PROTAC activity at G9a/VHL in human 22Rv1 cells assessed as induction of G9a degradation at 3 uM incubated for 24 hrs by Western blot analysis relative to control; assay type: cell-based
[2] = target: T2, von Hippel-Lindau disease tumor suppressor/Histone-lysine N-methyltransferase EHMT1 (Homo sapiens, UniProt Q9H9B1+P40337); experiment: PROTAC activity at GLP/VHL in human 22Rv1 cells assessed as induction of GLP degradation at 3 uM incubated for 24 hrs by Western blot analysis relative to control; assay type: cell-based
[3] = target: T2, von Hippel-Lindau disease tumor suppressor/Histone-lysine N-methyltransferase EHMT1; experiment: PROTAC activity at GLP/VHL in human 22Rv1 cells assessed as induction of GLP degradation at 0.3 uM incubated for 24 hrs by Western blot analysis relative to control; assay type: cell-based
[4] = target: T1, von Hippel-Lindau disease tumor suppressor/Histone-lysine N-methyltransferase EHMT2; experiment: PROTAC activity at G9a/VHL in human 22Rv1 cells assessed as induction of G9a degradation at 0.3 uM incubated for 24 hrs by Western blot analysis relative to control; assay type: cell-based
[5] = target: T1, von Hippel-Lindau disease tumor suppressor/Histone-lysine N-methyltransferase EHMT2; experiment: PROTAC activity at G9a/VHL in human 22Rv1 cells assessed as effect on G9a level upto 3 uM measured for 24 hrs by Western blot analysis; assay type: cell-based
[6] = target: T2, von Hippel-Lindau disease tumor suppressor/Histone-lysine N-methyltransferase EHMT1; experiment: PROTAC activity at GLP/VHL in human 22Rv1 cells assessed as effect on GLP level upto 3 uM measured for 24 hrs by Western blot analysis; assay type: cell-based
[7] = target: T2, von Hippel-Lindau disease tumor suppressor/Histone-lysine N-methyltransferase EHMT1; experiment: PROTAC activity at GLP/VHL in human 22Rv1 cells assessed as induction of GLP degradation at 1 uM incubated for 24 hrs by Western blot analysis; assay type: cell-based
[8] = target: T2, von Hippel-Lindau disease tumor suppressor/Histone-lysine N-methyltransferase EHMT1; experiment: PROTAC activity at GLP/VHL in human 22Rv1 cells assessed as effect on VHL level at 3 uM incubated for 24 hrs by RT-qPCR analysis; assay type: cell-based
CWR22R = experiment: Cytotoxicity against human 22Rv1 cells assessed as growth inhibition measured for 7 days; assay type: functional; details: 22Rv1, 168 h, time 7 day
K562 [9] = experiment: Cytotoxicity against human K562 cells assessed as reduction in cell viability incubated for 8 days; assay type: functional, cell-based; details: K562, 192 h
K562 [10] = experiment: Cytotoxicity against human K562 cells assessed as growth inhibition incubated for 7 days; assay type: functional; details: time 7.0 day
NCI-H1299 = experiment: Cytotoxicity against human NCI-H1299 cells assessed as growth inhibition incubated for 8 days; assay type: functional; details: NCI-H1299, 192 h, time 8 day

T1 sequence (P40337 whole entry partner): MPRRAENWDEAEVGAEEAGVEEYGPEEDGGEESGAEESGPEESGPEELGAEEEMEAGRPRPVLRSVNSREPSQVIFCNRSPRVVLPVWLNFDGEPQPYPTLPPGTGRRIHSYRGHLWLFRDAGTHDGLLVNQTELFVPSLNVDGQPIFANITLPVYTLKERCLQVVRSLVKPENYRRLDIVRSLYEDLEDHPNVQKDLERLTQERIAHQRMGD
T1 sequence (Q96KQ7 2-1210 limits assumed): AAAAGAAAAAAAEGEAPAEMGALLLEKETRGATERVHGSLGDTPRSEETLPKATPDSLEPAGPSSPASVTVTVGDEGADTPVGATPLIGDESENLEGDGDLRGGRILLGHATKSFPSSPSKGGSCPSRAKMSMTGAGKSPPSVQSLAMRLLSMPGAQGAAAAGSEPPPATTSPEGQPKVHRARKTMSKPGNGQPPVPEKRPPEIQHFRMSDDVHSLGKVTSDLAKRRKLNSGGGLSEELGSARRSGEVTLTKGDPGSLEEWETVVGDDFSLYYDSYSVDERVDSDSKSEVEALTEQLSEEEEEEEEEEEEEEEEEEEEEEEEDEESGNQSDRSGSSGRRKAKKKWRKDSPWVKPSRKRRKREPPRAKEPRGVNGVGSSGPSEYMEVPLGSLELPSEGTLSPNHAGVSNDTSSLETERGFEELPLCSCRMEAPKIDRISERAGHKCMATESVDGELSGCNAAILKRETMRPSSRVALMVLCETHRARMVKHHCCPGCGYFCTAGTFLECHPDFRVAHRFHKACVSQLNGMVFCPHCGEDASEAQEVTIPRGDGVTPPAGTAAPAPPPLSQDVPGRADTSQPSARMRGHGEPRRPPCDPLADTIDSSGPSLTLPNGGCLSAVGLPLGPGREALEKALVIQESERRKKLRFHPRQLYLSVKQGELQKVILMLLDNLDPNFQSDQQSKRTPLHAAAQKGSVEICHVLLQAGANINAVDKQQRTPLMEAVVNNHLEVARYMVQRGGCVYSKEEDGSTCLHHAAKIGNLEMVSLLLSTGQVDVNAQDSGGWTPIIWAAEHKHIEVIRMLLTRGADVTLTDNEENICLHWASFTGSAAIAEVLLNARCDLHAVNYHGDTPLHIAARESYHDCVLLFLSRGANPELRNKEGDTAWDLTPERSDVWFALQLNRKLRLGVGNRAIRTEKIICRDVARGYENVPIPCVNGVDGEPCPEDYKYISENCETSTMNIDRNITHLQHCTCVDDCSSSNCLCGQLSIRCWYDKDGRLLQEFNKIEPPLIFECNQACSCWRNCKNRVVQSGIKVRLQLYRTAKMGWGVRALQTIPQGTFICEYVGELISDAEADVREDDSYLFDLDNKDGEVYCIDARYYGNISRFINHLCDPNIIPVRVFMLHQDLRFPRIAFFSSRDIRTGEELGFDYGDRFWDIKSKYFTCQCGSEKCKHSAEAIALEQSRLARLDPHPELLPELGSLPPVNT
T2 sequence (P40337 whole entry partner): as the sequence (P40337 whole entry partner) above
T2 sequence (Q9H9B1 2-1298 limits assumed): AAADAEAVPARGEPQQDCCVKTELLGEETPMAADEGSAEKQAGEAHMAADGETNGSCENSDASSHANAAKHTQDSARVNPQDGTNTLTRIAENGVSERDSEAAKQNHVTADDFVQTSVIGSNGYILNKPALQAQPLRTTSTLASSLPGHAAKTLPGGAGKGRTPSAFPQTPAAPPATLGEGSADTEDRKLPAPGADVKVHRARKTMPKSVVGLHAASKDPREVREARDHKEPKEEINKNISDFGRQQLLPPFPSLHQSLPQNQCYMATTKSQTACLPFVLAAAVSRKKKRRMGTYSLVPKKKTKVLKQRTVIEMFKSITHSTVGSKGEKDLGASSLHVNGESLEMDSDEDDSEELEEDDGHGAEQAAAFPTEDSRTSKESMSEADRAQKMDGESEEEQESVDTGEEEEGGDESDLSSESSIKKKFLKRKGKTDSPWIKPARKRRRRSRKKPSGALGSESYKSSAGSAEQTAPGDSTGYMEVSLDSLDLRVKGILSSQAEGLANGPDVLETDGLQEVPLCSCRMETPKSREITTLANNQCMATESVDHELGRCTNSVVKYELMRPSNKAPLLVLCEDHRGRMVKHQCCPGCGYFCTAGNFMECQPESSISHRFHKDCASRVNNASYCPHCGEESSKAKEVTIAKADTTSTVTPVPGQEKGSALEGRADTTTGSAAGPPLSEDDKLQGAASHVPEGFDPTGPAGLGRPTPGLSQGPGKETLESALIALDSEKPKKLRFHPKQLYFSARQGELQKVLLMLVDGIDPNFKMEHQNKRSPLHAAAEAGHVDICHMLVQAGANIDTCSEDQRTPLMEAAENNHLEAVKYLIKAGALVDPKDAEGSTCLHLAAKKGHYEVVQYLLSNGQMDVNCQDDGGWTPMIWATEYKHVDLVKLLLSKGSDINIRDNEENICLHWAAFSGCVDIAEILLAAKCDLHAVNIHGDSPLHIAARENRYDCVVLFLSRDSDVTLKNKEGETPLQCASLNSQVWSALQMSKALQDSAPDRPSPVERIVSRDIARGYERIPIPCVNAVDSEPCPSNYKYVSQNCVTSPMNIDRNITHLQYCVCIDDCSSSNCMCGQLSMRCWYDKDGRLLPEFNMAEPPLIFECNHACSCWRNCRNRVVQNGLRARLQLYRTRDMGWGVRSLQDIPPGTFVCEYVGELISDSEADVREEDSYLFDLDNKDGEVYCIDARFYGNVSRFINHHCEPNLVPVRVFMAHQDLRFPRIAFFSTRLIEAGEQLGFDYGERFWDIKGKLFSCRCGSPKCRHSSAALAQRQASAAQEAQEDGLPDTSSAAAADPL

Emax [1] [%] | Emax [2] [%] | Emax [3] [%] | Emax [4] [%] | SMILES | also measured
87 | 86 | < 27 | – | COc1cc2c(NN3CCN(CCCC(=O)NCCCCCCCCC(=O)N[C@H](C(=O)N4C[C@H](O)C[C@H]4C(=O)NCc4ccc(-c5scnc5C)cc4)C(C)(C)C)CC3)nc(N3CCC(F)(F)CC3)nc2cc1OCCCN1CCCC1 | –
– | < 27 | < 16 | – | COc1cc2c(NC3CCN(CCCC(=O)NCCOCCOCCOCCC(=O)N[C@H](C(=O)N4C[C@H](O)C[C@H]4C(=O)NCc4ccc(-c5scnc5C)cc4)C(C)(C)C)CC3)nc(N3CCC(F)(F)CC3)nc2cc1OCCCN1CCCC1 | –
< 11 | < 11 | < 9 | – | COc1cc2c(NC3CCN(CCCC(=O)NCCCCC(=O)N[C@H](C(=O)N4C[C@H](O)C[C@H]4C(=O)NCc4ccc(-c5scnc5C)cc4)C(C)(C)C)CC3)nc(N3CCC(F)(F)CC3)nc2cc1OCCCN1CCCC1 | –
< 30 | < 19 | < 5 | – | COc1cc2c(NC3CCN(CCCC(=O)NCCCCCC(=O)N[C@H](C(=O)N4C[C@H](O)C[C@H]4C(=O)NCc4ccc(-c5scnc5C)cc4)C(C)(C)C)CC3)nc(N3CCC(F)(F)CC3)nc2cc1OCCCN1CCCC1 | –
61 | 70 | 54 | 66 | COc1cc2c(NC3CCN(CCCC(=O)NCCC(=O)N[C@H](C(=O)N4C[C@H](O)C[C@H]4C(=O)NCc4ccc(-c5scnc5C)cc4)C(C)(C)C)CC3)nc(N3CCC(F)(F)CC3)nc2cc1OCCCN1CCCC1 | –
< 13 | 21 | < 7 | – | COc1cc2c(NC3CCN(CCCC(=O)NCCOCCOCCC(=O)N[C@H](C(=O)N4C[C@H](O)C[C@H]4C(=O)NCc4ccc(-c5scnc5C)cc4)C(C)(C)C)CC3)nc(N3CCC(F)(F)CC3)nc2cc1OCCCN1CCCC1 | –
75 | 68 | < 28 | – | COc1cc2c(NC3CCN(CCCC(=O)NCCCCCCCC(=O)N[C@H](C(=O)N4C[C@H](O)C[C@H]4C(=O)NCc4ccc(-c5scnc5C)cc4)C(C)(C)C)CC3)nc(N3CCC(F)(F)CC3)nc2cc1OCCCN1CCCC1 | –
< 92 | < 94 | 69 | 79 | COc1cc2c(NC3CCN(CCCC(=O)NCCCCCCCCCCC(=O)N[C@H](C(=O)N4C[C@H](O)C[C@H]4C(=O)NCc4ccc(-c5scnc5C)cc4)C(C)(C)C)CC3)nc(N3CCC(F)(F)CC3)nc2cc1OCCCN1CCCC1 | –
– | 88 | < 10 | – | COc1cc2c(NC3CCN(CCCC(=O)NCCOCCC(=O)N[C@H](C(=O)N4C[C@H](O)C[C@H]4C(=O)NCc4ccc(-c5scnc5C)cc4)C(C)(C)C)CC3)nc(N3CCC(F)(F)CC3)nc2cc1OCCCN1CCCC1 | –
– | – | – | – | COc1cc2c(NC3CCN(CCCC(=O)NCCCCCCCCCCCC(=O)N[C@H](C(=O)N4C[C@@H](O)C[C@@H]4C(=O)NCc4ccc(-c5scnc5C)cc4)C(C)(C)C)CC3)nc(N3CCC(F)(F)CC3)nc2cc1OCCCN1CCCC1 | Activity [5]: inactive; Activity [6]: inactive
< 30 | < 20 | < 7 | < 10 | COc1cc2c(NC3CCN(CCCC(=O)NCCCCCCC(=O)N[C@H](C(=O)N4C[C@H](O)C[C@H]4C(=O)NCc4ccc(-c5scnc5C)cc4)C(C)(C)C)CC3)nc(N3CCC(F)(F)CC3)nc2cc1OCCCN1CCCC1 | –
– | – | – | – | COc1cc2c(NC3CCN(C(C)C)CC3)nc(N3CCC(F)(F)CC3)nc2cc1OCCCN1CCCC1 | Activity [7]: inactive; Activity [8]: Active; GI50 (CWR22R): > 10 µM; IC50 (K562 [9]): > 10 µM; Activity (K562 [10]): inactive; GI50 (NCI-H1299): > 10 µM
< 92 | < 96 | 84 | 67 | COc1cc2c(NC3CCN(CCCC(=O)NCCCCCCCCCC(=O)N[C@H](C(=O)N4C[C@H](O)C[C@H]4C(=O)NCc4ccc(-c5scnc5C)cc4)C(C)(C)C)CC3)nc(N3CCC(F)(F)CC3)nc2cc1OCCCN1CCCC1 | –
– | 21 | < 3 | < 8 | COc1cc2c(NC3CCN(CCCC(=O)NCCCC(=O)N[C@H](C(=O)N4C[C@H](O)C[C@H]4C(=O)NCc4ccc(-c5scnc5C)cc4)C(C)(C)C)CC3)nc(N3CCC(F)(F)CC3)nc2cc1OCCCN1CCCC1 | –
